These results are taken from US20240246918A1, “COMPOUNDS AND COMPOSITIONS AS EIF4E INHIBITORS AND THE USES THEREOF” (Ribometrix, Inc., priority 2022, published 2024).

pIC50: −log10 of the molar value.

In assay [1] the test system is COLO 205 colorectal tumor cells. The experiment in a line: Tumor cell viability inhibition assay (CellTiter-Glo 2.0, 72 hours). Particulars: COLO 205 cell viability. It counts as cell-based. In short, it runs like this: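 COLO 205 cells (1500/well, RPMI-1640 + 10% FBS) exposed for 72 h to an 11-point, 4-fold dilution series; cellular ATP read by CellTiter-Glo 2.0 luminescence. Data normalized to DMSO and maximum-inhibition controls; IC50 from 4-parameter curve fit.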
Background: Cellular ATP, detected with luciferase, serves as a proxy for viable cell number.

The next assay has as its target T1, human eIF4E protein (Homo sapiens, UniProt P06730).
T1 construct: purchased Novus NBP-45314
The experiment in a line: Biochemical competitive binding assay (TR-FRET competition, EDA-m7GDP-ATTO-647N probe). Particulars: read-out: hEIF4E TR-FRET IC50. In short, it runs like this:
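His-tagged human eIF4E (4 nM) was preincubated with Eu-anti-His antibody (2.5 nM) and added to compound (11-point, 4-fold dilutions) for 15 min. Then 5 nM EDA-m7GDP-ATTO-647N was added for 15 min, in HEPES pH 7.5, 100 mM KCl. The 665/620 TR-FRET ratio was normalized to controls, and IC50 was taken from 4-parameter fits.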

T1 sequence (P06730 whole entry): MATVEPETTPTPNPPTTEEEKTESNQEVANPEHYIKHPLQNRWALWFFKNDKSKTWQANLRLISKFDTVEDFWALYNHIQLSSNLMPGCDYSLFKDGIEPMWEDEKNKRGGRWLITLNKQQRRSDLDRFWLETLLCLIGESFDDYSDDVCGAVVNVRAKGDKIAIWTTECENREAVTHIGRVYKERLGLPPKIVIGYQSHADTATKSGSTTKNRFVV

By pIC50 is commonly meant −log10 of the IC50, conventionally taken in molar units. With `Cc1cc(-c2cc(Cl)ccc2OCCn2c(C)nc3c(c2=O)C[C@@H](N2C[C@@H]4CC[C@H]2CC4OC(F)(F)F)CC32CC2)c2scc(C(=O)O)c2n1` (single isomer, unassigned) [Compound 605], the pIC50 was over 5.30 in assay [1] (Homo sapiens, COLO 205, 72 h) and over 7.00 at human eIF4E protein.

Regarding `Cc1cc(-c2cc(Cl)ccc2OCCn2c(C)nc3c(c2=O)C[C@H](N2C[C@H]4CC[C@@H]2CC4OC(F)(F)F)CC32CC2)c2scc(C(=O)O)c2n1` (single isomer, unassigned) [Compound 606], the pIC50 in assay [1] (Homo sapiens, COLO 205, 72 h) was over 5.30; at human eIF4E protein, over 7.00.

As to `Cc1cc(-c2cc(Cl)ccc2OCCn2c(C)nc3c(c2=O)C[C@@H](N2C[C@H]4CC[C@@H]2CC4OC(F)(F)F)CC32CC2)c2scc(C(=O)O)c2n1` (single isomer, unassigned) [Compound 607], the pIC50 in assay [1] (Homo sapiens, COLO 205, 72 h) is over 5.30; on human eIF4E protein it was over 7.00.

For the molecule `Cc1cc(-c2cc(Cl)ccc2C#CCn2c(C)nc3c(c2=O)CC(C)(N2CCCC4(C2)CC4(F)F)CC3)c2scc(C(=O)O)c2n1` (single isomer, unassigned) [Compound 608], the pIC50 in assay [1] was over 5.30; at human eIF4E protein, over 7.00.

For the molecule `Cc1cc(-c2cc(Cl)ccc2OCCn2c(C)nc3c(c2=O)C[C@@H](N2CCC[C@@H](C(F)F)C2)CC32CC2)c2scc(C(=O)O)c2n1` (single isomer, unassigned) [Compound 609], the pIC50 in assay [1] (Homo sapiens, COLO 205, 72 h) was over 5.30; at human eIF4E protein, over 7.00.

For the molecule `Cc1cc(-c2cc(Cl)ccc2OCCn2c(C)nc3c(c2=O)C[C@@H](N2CCC[C@H](C(F)F)C2)CC32CC2)c2scc(C(=O)O)c2n1` (single isomer, unassigned) [Compound 610], the pIC50 was over 5.30 in assay [1] (Homo sapiens, COLO 205, 72 h) and over 7.00 at human eIF4E protein.

For the molecule `Cc1cc(-c2cc(Cl)ccc2OCCn2c(C)nc3c(c2=O)C[C@H](N2CCC(Oc4ccc(F)cc4F)CC2)CC32CC2)c2scc(C(=O)O)c2n1` (single isomer, unassigned) [Compound 611], the pIC50 in assay [1] (Homo sapiens, COLO 205, 72 h) was over 5.30; at human eIF4E protein it was over 7.00.

As to `Cc1cc(-c2cc(Cl)ccc2C#CCn2c(C)nc3c(c2=O)CC(C)(N2CCCC4(C2)CC4(F)F)CC3)c2scc(C(=O)O)c2n1` (single isomer, unassigned) [Compound 612], the pIC50 in assay [1] is 4.70 to 5.30; on human eIF4E protein, 6.30 to 7.00.

On to `Cc1cc(-c2cc(Cl)ccc2OCCn2c(C)nc3c(c2=O)C[C@@H](N2CCC(Oc4ccc(F)cc4F)CC2)CC32CC2)c2scc(C(=O)O)c2n1` (single isomer, unassigned) [Compound 613], for which the pIC50 was over 5.30 in assay [1] (Homo sapiens, COLO 205, 72 h) and over 7.00 at human eIF4E protein.

Take `Cc1cc(-c2cc(Cl)ccc2C#CCn2c(C)nc3c(c2=O)CC(C)(N2CCCC4(C2)CC4(F)F)CC3)c2scc(C(=O)O)c2n1` (single isomer, unassigned) [Compound 614]: the pIC50 in assay [1] was over 5.30; on human eIF4E protein it was over 7.00.

Consider `Cc1cc(-c2cc(Cl)ccc2C#CCn2c(C)nc3c(c2=O)CC(C)(N2CCCC4(C2)CC4(F)F)CC3)c2scc(C(=O)O)c2n1` (single isomer, unassigned) [Compound 615], for which the results for the pIC50 (in assay [1]; at human eIF4E protein) were under 4.70 and 6.30 to 7.00, respectively.

On to `Cc1cc(-c2cc(Cl)ccc2OCCn2c(C)nc3c(c2=O)C[C@H](N2CCC[C@@H](C(F)F)C2)CC32CC2)c2scc(C(=O)O)c2n1` (single isomer, unassigned) [Compound 616], for which the pIC50 in assay [1] (Homo sapiens, COLO 205, 72 h) is over 5.30; on human eIF4E protein it was over 7.00.

As to `Cc1cc(-c2cc(Cl)ccc2OCCn2c(C)nc3c(c2=O)C[C@H](N2CCC[C@H](C(F)F)C2)CC32CC2)c2scc(C(=O)O)c2n1` (single isomer, unassigned) [Compound 617], the negative logarithm of the IC50 (pIC50) is over 5.30 in assay [1] (Homo sapiens, COLO 205, 72 h) and over 7.00 at human eIF4E protein.

Turning to `Cc1cc(-c2cc(Cl)ccc2OCCn2c(C)nc3c(c2=O)C[C@H](N2C[C@@H]4CC(F)(F)C[C@@H]4C2)CC32CC2)c2scc(C(=O)O)c2n1` (single isomer, unassigned) [Compound 618], the pIC50 in assay [1] (Homo sapiens, COLO 205, 72 h) is over 5.30; at human eIF4E protein it was over 7.00.

With `Cc1cc(-c2cc(Cl)ccc2OCCn2c(C)nc3c(c2=O)C[C@@H](N2C[C@@H]4CC(F)(F)C[C@@H]4C2)CC32CC2)c2scc(C(=O)O)c2n1` (single isomer, unassigned) [Compound 619], the pIC50 in assay [1] (Homo sapiens, COLO 205, 72 h) was over 5.30; on human eIF4E protein, over 7.00.

Consider `Cc1cc(-c2cc(Cl)ccc2OCCn2c(C)nc3c(c2=O)CC(CN(C)C)(N2CCC(OC(F)(F)F)CC2)CC3)c2scc(C(=O)O)c2n1` (single isomer, unassigned) [Compound 620], for which the values for the pIC50 (in assay [1]; at human eIF4E protein) were over 5.30 and over 7.00, respectively.

As to `Cc1cc(-c2cc(Cl)ccc2OCCn2c(C)nc3c(c2=O)CC(CN(C)C)(N2CCC(OC(F)(F)F)CC2)CC3)c2scc(C(=O)O)c2n1` (single isomer, unassigned) [Compound 621], the pIC50 is under 4.70 in assay [1] and 6.30 to 7.00 on human eIF4E protein.

In the case of `Cc1cc(-c2cc(Cl)ccc2OCCn2c(C)nc3c(c2=O)CC(CN)(N2CCC(OC(F)(F)F)CC2)CC3)c2scc(C(=O)O)c2n1` (single isomer, unassigned) [Compound 622], the pIC50 in assay [1] (Homo sapiens, COLO 205, 72 h) is under 4.70; at human eIF4E protein it was over 7.00.

On to `Cc1cc(-c2cc(Cl)ccc2OCCn2c(C)nc3c(c2=O)CC(CN)(N2CCC(OC(F)(F)F)CC2)CC3)c2scc(C(=O)O)c2n1` (single isomer, unassigned) [Compound 623], for which the pIC50 in assay [1] was under 4.70; on human eIF4E protein, 6.30 to 7.00.

With `Cc1cc(-c2cc(Cl)ccc2OCCn2c(C)nc3c(c2=O)C[C@H](N2CCCC[C@@H]2C(F)(F)F)CC32CC2)c2scc(C(=O)O)c2n1` (single isomer, unassigned) [Compound 624], the pIC50 in assay [1] (Homo sapiens, COLO 205, 72 h) was 4.70 to 5.30; at human eIF4E protein, 6.30 to 7.00.

As for `Cc1cc(-c2cc(Cl)ccc2OCCn2c(C)nc3c(c2=O)C[C@@H](N2CCCC(C)[C@@H]2C(F)(F)F)CC32CC2)c2scc(C(=O)O)c2n1` (single isomer, unassigned) [Compound 625], the pIC50 was 4.70 to 5.30 in assay [1] (Homo sapiens, COLO 205, 72 h) and 6.30 to 7.00 on human eIF4E protein.

On to `Cc1cc(-c2cc(Cl)ccc2OCCn2c(C)nc3c(c2=O)C[C@H](N2CCCC[C@H]2c2cccc(F)c2)CC32CC2)c2scc(C(=O)O)c2n1` (single isomer, unassigned) [Compound 626, 7-(5-chloro-2-(2-(6′-(2-(3-fluorophenyl)piperidin-1-yl)-2′-methyl-4′-oxo-6′,7′-dihydro-4′H-spiro[cyclopropane-1,8′-quinazolin]-3′(5′H)-yl)ethoxy)phenyl)-5-methylthieno[3,2-b]pyridine-3-carboxylic acid], for which the pIC50 in assay [1] (Homo sapiens, COLO 205, 72 h) was 4.70 to 5.30; at human eIF4E protein it was over 7.00.

Turning to `Cc1cc(-c2cc(Cl)ccc2OCCn2c(C(F)(F)F)nc3c(c2=O)CC(N2CCC(OC(F)(F)F)CC2)CC3)c2scc(C(=O)O)c2n1` (single isomer, unassigned) [Compound 627], the pIC50 was under 4.70 in assay [1] (Homo sapiens, COLO 205, 72 h) and 5.30 to 6.30 at human eIF4E protein.

For the molecule `Cc1cc(-c2cc(Cl)ccc2OCCn2c(C)nc3c(c2=O)C[C@@H](N2CCCC[C@H]2c2cccc(F)c2)CC32CC2)c2scc(C(=O)O)c2n1` (single isomer, unassigned) [Compound 628, 7-(5-chloro-2-(2-(6′-(2-(3-fluorophenyl)piperidin-1-yl)-2′-methyl-4′-oxo-6′,7′-dihydro-4′H-spiro[cyclopropane-1,8′-quinazolin]-3′(5′H)-yl)ethoxy)phenyl)-5-methylthieno[3,2-b]pyridine-3-carboxylic acid], the pIC50 in assay [1] (Homo sapiens, COLO 205, 72 h) is over 5.30; at human eIF4E protein, over 7.00.

On to `Cc1cc(-c2cc(Cl)ccc2OCCn2c(C)nc3c(c2=O)C[C@@H](N2CCCC[C@@H]2c2cccc(F)c2)CC32CC2)c2scc(C(=O)O)c2n1` (single isomer, unassigned) [Compound 629, 7-(5-chloro-2-(2-(6′-(2-(3-fluorophenyl)piperidin-1-yl)-2′-methyl-4′-oxo-6′,7′-dihydro-4′H-spiro[cyclopropane-1,8′-quinazolin]-3′(5′H)-yl)ethoxy)phenyl)-5-methylthieno[3,2-b]pyridine-3-carboxylic acid], for which the pIC50 in assay [1] (Homo sapiens, COLO 205, 72 h) is 4.70 to 5.30; at human eIF4E protein, 5.30 to 6.30.

Consider `Cc1cc(-c2cc(Cl)ccc2OCCn2c(C)nc3c(c2=O)C[C@@H](N2CCCC[C@H]2C(F)(F)F)CC32CC2)c2scc(C(=O)O)c2n1` (single isomer, unassigned) [Compound 630], for which the pIC50 is 4.70 to 5.30 in assay [1] (Homo sapiens, COLO 205, 72 h) and over 7.00 at human eIF4E protein.

Turning to `Cc1cc(-c2cc(Cl)ccc2OCCn2c(C(F)(F)F)nc3c(c2=O)CC(N2CCC(OC(F)(F)F)CC2)CC3)c2scc(C(=O)O)c2n1` (single isomer, unassigned) [Compound 631], the pIC50 in assay [1] is under 4.70; on human eIF4E protein, 5.30 to 6.30.

In the case of `Cc1cc(-c2cc(Cl)ccc2OCCn2c(C)nc3c(c2=O)CC(N2CCC4(CC2)CC4(F)F)CC32CC2)c2scc(C(=O)NS(C)(=O)=O)c2n1` (single isomer, unassigned) [Compound 632], the pIC50 in assay [1] (Homo sapiens, COLO 205, 72 h) is over 5.30; at human eIF4E protein, over 7.00.

On to `Cc1cc(-c2cc(Cl)ccc2OCCn2c(C)nc3c(c2=O)C[C@H](N2CCCC[C@H]2C(F)(F)F)CC32CC2)c2scc(C(=O)O)c2n1` (single isomer, unassigned) [Compound 633], for which the pIC50 was 4.70 to 5.30 in assay [1] (Homo sapiens, COLO 205, 72 h) and over 7.00 on human eIF4E protein.

Take `Cc1cc(-c2cc(Cl)ccc2OCCn2c(C)nc3c(c2=O)C[C@H](N2CCCC[C@@H]2c2cccc(F)c2)CC32CC2)c2scc(C(=O)O)c2n1` (single isomer, unassigned) [Compound 634, 7-(5-chloro-2-(2-(6′-(2-(3-fluorophenyl)piperidin-1-yl)-2′-methyl-4′-oxo-6′,7′-dihydro-4′H-spiro[cyclopropane-1,8′-quinazolin]-3′(5′H)-yl)ethoxy)phenyl)-5-methylthieno[3,2-b]pyridine-3-carboxylic acid]: the pIC50 was under 4.70 in assay [1] (Homo sapiens, COLO 205, 72 h) and 6.30 to 7.00 at human eIF4E protein.
